How the values were obtained:
[1] = test system: HepG2 cells; assay: Phase contrast microscopy of morphological changes in HepG2 cells; assay type: cell-based, human
Protocol: FIG. 2A is a graph comparison of IC50 of Uttroside B in a panel of cancer cells of different origin. The cancer cell lines HeLa, A375, HepG2, MDA-MB-231, HL 60, A549 and HCT116 were treated with Uttroside B as indicated, incubated for 72 h and the cell viability was assessed by MTT assay. FIG. 2B is a graph showing dose dependent effect of Uttroside B in the liver cancer cell lines and in normal immortalized hepatocytes. The liver cancer cell lines HepG2, Hep3B, SKHEP-1, Huh-7 and normal hepatocytes (Chang liver), were treated with Uttroside B incubated for 72 h and the cell viability was assessed by MTT assay. FIG. 2C is a graph comparison of IC50 of Uttroside B with sorafenib. HepG2 cells were treated with Uttroside B as indicated, incubated for 72 h, and the cell viability was assessed by MTT assay. FIG. 2D is an image of the morphological changes induced by Uttroside B in HepG2 cells. […] FIG. 2E is an image showing Uttroside B inhibits the clonogenic potential of HepG2 cells. HepG2 cells were treated with different concentrations of Uttroside B for 72 h and the clonogenic assay was performed. FIG. 2F is a graph comparison of efficacy of Uttroside B in inhibiting the clonogenic potential of HepG2 cells. The clones developed were counted and plotted as a graph. Colony containing more than four cells was counted as one clone. […]

[2] = test system: Swiss albino mice; assay: Chronic toxicity study (3 months); assay type: in vivo
Protocol: Swiss albino mice were randomly divided into 2 groups of 6 animals each and were allowed to acclimatize for a week. Group I received vehicle and Group II received 10 mg/Kg body weight of Uttroside B. The compounds were given as intraperitonial injection on alternate days, thrice in a week, for 3 months. The animals were observed frequently during this period after which, the animals were euthanized in a CO2 chamber. The blood serum was collected for analyzing biochemical parameters of liver function, the abnormal values of which are indicative of hepatotoxicity. The liver was fixed in 10% buffered formalin and the thin cryostat sections were stained with haematoxylin and eosin for histopathological evaluation.^9

[3] = test system: autophagy related proteins in Hep3B cells; assay: Western blot of autophagy related proteins in Hep3B cells; assay type: cell-based; conditions: time dependent
Protocol: Western blot analysis. Approximately 0.5×10^6 cells were grown on 60 mm culture plates and exposed to drugs as indicated for the desired time. The cells were then scraped out, washed in ice cold 1× PBS and pelleted down at 13000 rpm for 2 min. The pelleted cells were suspended in 150 μL of ice-cold whole cell lysis buffer[(20 mMTris of pH 7.4, 250 mM NaCl, 2 mM EDTA, 0.1% Triton, 1 mM DTT (1,4-dithiothreitol), 0.5 mM PMSF, 4 mM sodium orthovanadate, aprotinin (5 mg m/L) and leupeptin (5 mg m/L)] and kept in ice for 30 min, with intermittent vortexing every 5 min. After incubation, the lysate was centrifuged at 13000 rpm for 10 min at 4° C. and the supernatant was collected. The total protein content in the lysate was estimated by Bradford's method, and was then denatured by boiling with 5× loading dye before separating the proteins by SDSpolyacrylamidegel electrophoresis (SDS-PAGE). […]

What does the source list for C[C@H](CC[C@@]1(O)O[C@H]2C[C@H]3[C@@H]4CC[C@H]5C[C@@H](O[C@@H]6O[C@H](CO)[C@H](O[C@@H]7O[C@H](CO)[C@@H](O)[C@H](O[C@@H]8OC[C@@H](O)[C@H](O)[C@H]8O)[C@H]7O[C@@H]7O[C@H](CO)[C@@H](O)[C@H](O)[C@H]7O)[C@H](O)[C@H]6O)CC[C@]5(C)[C@H]4CC[C@]3(C)[C@H]2[C@@H]1C)CO[C@@H]1O[C@H](CO)[C@@H](O)[C@H](O)[C@H]1O [Uttroside B]?
morphological changes characteristic of apoptosis ([1]; 72 h, dose dependent): Nuclear condensation, membrane blebbing and formation of apoptotic bodies; vacuole formation ([1]; HepG2, 24 h): induces vacuole formation; histopathological analysis of liver tissue, chronic ([2]; 10 mg/kg): did not manifest any morphological change characteristic of toxicity; total and differential WBC count, serum AST, ALT, ALP and BUN ([2]; 10 mg/kg i.p. thrice weekly, 3 months): no significant difference in any of these parameters from their normal range of values; expression of autophagy related proteins, Hep3B [3]: induced Atg5, Atg7 and LC3 in a time dependent manner
